Measured values published in PubChem BioAssay (NCI).
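Exposure lasted 48 hours, with cells grown in 96-well plates and compounds tested at five concentrations. Definition used: TGI = concentration required for complete inhibition of growth.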

Key:
Test in all cases: NCI anticancer screen, dose series, 48 h
SNB-19 CNS = system: SNB-19 CNS
UO-31 renal = system: UO-31 renal
HCC-2998 colon = system: HCC-2998 colon
SK-MEL-2 melanoma = system: SK-MEL-2 melanoma
ACHN renal = system: ACHN renal
XF 498 CNS = system: XF 498 CNS
RXF 393 renal = system: RXF 393 renal
SN12C renal = system: SN12C renal
HCT-116 colon = system: HCT-116 colon
EKVX NSCLC = system: EKVX NSCLC
SNB-78 CNS = system: SNB-78 CNS
OVCAR-4 ovarian = system: OVCAR-4 ovarian
786-0 renal = system: 786-0 renal
SK-MEL-5 melanoma = system: SK-MEL-5 melanoma
KM12 colon = system: KM12 colon
U251 CNS = system: U251 CNS
IGROV1 ovarian = system: IGROV1 ovarian
MDA-MB-435 = system: MDA-MB-435
UACC-62 melanoma = system: UACC-62 melanoma
SW-620 colon = system: SW-620 colon
A498 renal = system: A498 renal
MOLT-4 leukemia = system: MOLT-4 leukemia
CAKI-1 renal = system: CAKI-1 renal
DLD-1 colon = system: DLD-1 colon
NCI-H522 lung = system: NCI-H522 lung
PC-3 prostate = system: PC-3 prostate
HT29 colon = system: HT29 colon
SF-539 CNS = system: SF-539 CNS
MDA-N = system: MDA-N
MALME-3M melanoma = system: MALME-3M melanoma
OVCAR-5 ovarian = system: OVCAR-5 ovarian
LOX IMVI melanoma = system: LOX IMVI melanoma
SR leukemia = system: SR leukemia
MDA-MB-231 breast = system: MDA-MB-231 breast
M14 melanoma = system: M14 melanoma
DMS 273 small cell lung = system: DMS 273 small cell lung
CCRF-CEM leukemia = system: CCRF-CEM leukemia
UACC-257 melanoma = system: UACC-257 melanoma
TK-10 renal = system: TK-10 renal
HL-60(TB) leukemia = system: HL-60(TB) leukemia
OVCAR-8 ovarian = system: OVCAR-8 ovarian
NCI-H226 lung = system: NCI-H226 lung
DU-145 prostate = system: DU-145 prostate
SNB-75 CNS = system: SNB-75 CNS
M19-MEL melanoma = system: M19-MEL melanoma
K-562 leukemia = system: K-562 leukemia
NCI-H23 lung = system: NCI-H23 lung
MCF7 breast = system: MCF7 breast
SK-MEL-28 melanoma = system: SK-MEL-28 melanoma
RPMI-8226 leukemia = system: RPMI-8226 leukemia
HOP-62 NSCLC = system: HOP-62 NSCLC
LXFL 529 NSCLC = system: LXFL 529 NSCLC
A549 NSCLC = system: A549 NSCLC
DMS 114 small cell lung = system: DMS 114 small cell lung
SF-295 CNS = system: SF-295 CNS
HCT-15 colon = system: HCT-15 colon
SF-268 CNS = system: SF-268 CNS
KM20L2 colon = system: KM20L2 colon
NCI-H460 lung = system: NCI-H460 lung
HOP-92 NSCLC = system: HOP-92 NSCLC
COLO 205 colon = system: COLO 205 colon
SK-OV-3 ovarian = system: SK-OV-3 ovarian
OVCAR-3 ovarian = system: OVCAR-3 ovarian

Measured: TGI

C=CCOc1cc2c(cc1C(C)c1ccc(OC)cc1)OCO2 (centres undefined)
12.7 µM: HCC-2998 colon
> 40.6 µM: MOLT-4 leukemia
> 87.8 µM: UO-31 renal
> 42.8 µM: M14 melanoma
527 nM: SNB-75 CNS
65.9 µM: KM12 colon
> 31.7 µM: CCRF-CEM leukemia
> 56.3 µM: SK-MEL-5 melanoma
63.9 µM: LXFL 529 NSCLC
> 74.4 µM: RPMI-8226 leukemia
485 nM: RXF 393 renal
2600 nM: HL-60(TB) leukemia
> 74.3 µM: SF-268 CNS
695 nM: SR leukemia
838 nM: DMS 114 small cell lung
> 47.9 µM: HCT-116 colon
2260 nM: HT29 colon
> 62.7 µM: HOP-62 NSCLC
40.2 µM: NCI-H226 lung
6.44 µM: UACC-257 melanoma
> 83.9 µM: LOX IMVI melanoma
> 100 µM: SNB-19 CNS | SK-MEL-2 melanoma | ACHN renal | SN12C renal | EKVX NSCLC | SNB-78 CNS | OVCAR-4 ovarian | 786-0 renal | U251 CNS | IGROV1 ovarian | SW-620 colon | A498 renal | CAKI-1 renal | DLD-1 colon | PC-3 prostate | MDA-N | MALME-3M melanoma | OVCAR-5 ovarian | MDA-MB-231 breast | DMS 273 small cell lung | TK-10 renal | DU-145 prostate | M19-MEL melanoma | K-562 leukemia | NCI-H23 lung | MCF7 breast | SK-MEL-28 melanoma | A549 NSCLC | HCT-15 colon
753 nM: XF 498 CNS
1210 nM: KM20L2 colon
1340 nM: SF-539 CNS
5.97 µM: OVCAR-8 ovarian
541 nM: NCI-H522 lung
817 nM: SF-295 CNS
1910 nM: MDA-MB-435
> 87.5 µM: UACC-62 melanoma

COc1ccc(/C=C2/C(=O)N(C(=O)c3ccc(Cl)cc3)N=C2C)cc1OC
> 100000 nM: XF 498 CNS | NCI-H522 lung | HT29 colon | SF-539 CNS | HL-60(TB) leukemia | DMS 114 small cell lung | SF-295 CNS | KM20L2 colon
> 100 µM: SNB-19 CNS | UO-31 renal | HCC-2998 colon | SK-MEL-2 melanoma | ACHN renal | SN12C renal | HCT-116 colon | EKVX NSCLC | SNB-78 CNS | OVCAR-4 ovarian | 786-0 renal | SK-MEL-5 melanoma | KM12 colon | U251 CNS | IGROV1 ovarian | UACC-62 melanoma | SW-620 colon | A498 renal | CAKI-1 renal | DLD-1 colon | NCI-H460 lung | MALME-3M melanoma | OVCAR-5 ovarian | LOX IMVI melanoma | M14 melanoma | HOP-92 NSCLC | CCRF-CEM leukemia | UACC-257 melanoma | TK-10 renal | OVCAR-8 ovarian | COLO 205 colon | SK-OV-3 ovarian | OVCAR-3 ovarian | M19-MEL melanoma | K-562 leukemia | NCI-H23 lung | SK-MEL-28 melanoma | RPMI-8226 leukemia | HOP-62 NSCLC | LXFL 529 NSCLC | A549 NSCLC | HCT-15 colon | SF-268 CNS
